Measured values reported in patent US6743923B2, “Antirheumatic agent” (Shionogi & Co., Ltd., priority 1997, dated 2004).
Marks after values point to notes of the source that are not given here.

Assays:
[1] = test system: IL-6 production from synovial membrane cells of RA patients; assay: Inhibitory activity against IL-6 production, synovial membrane cells from RA patient; type: cell-based, human; settings: synovial membrane cells from RA patient
[2] = test system: adjuvant articular swelling; assay: Rat adjuvant arthritis: inhibitory effect against articular swelling; type: in vivo
Protocol: (§1) A rat adjuvant arthritis model, which is commonly used in an in vivo evaluation for antirheumatic agents, was employed in this evaluation. To prepare an arthritis model, heat-killed cells of Mycobacterium butyricum (Difco) were suspended in mineral oil, and a rat was intradermally injected with 0.05 mL of 1% solution of the suspension at the plantar of left hind leg.
Using the above arthritis model, Compound Ia was administered to the animal for 22 days after injection of the adjuvant, and the articular swelling was measured from time to time to evaluate the prophylactic inhibitory effect. On the other hand, the curative effect was evaluated by administering Compound Ia to animals from Day 15 to Day 25 after injection of the adjuvant and measuring the articular swelling in injected and non-injected legs. Inhibitory and curative effects were expressed by effective dose for 30% inhibition (ED30).

[3] = test system: articular destruction in adjuvant arthritis; assay: Rat adjuvant arthritis: inhibitory effect against articular destruction (X-ray score); type: in vivo
Protocol: as §1
The right and left hind legs of the arthritis rats used in the above experiments were radiographed using a soft X-ray radiation and evaluated by the X-ray observation score for the bone destruction in the arthrosis. The effects were numerically evaluated by grading the articular destruction from 0 to 3 (0: normal; 1: low degree of articular and bone destruction; 2: medium degree of articular and bone destruction, and neogenesis of cartilage; 3: strong articular and bone destruction), and the efficacy in the drug-administered group was determined in comparison with the vehicle-administered group according to Wilcoxon U-test (*p<0.05, **p<0.01)(FIG. 2).

[4] = test system: IL-6 level in articular tissue; assay: Rat adjuvant arthritis: repressive effect on the IL-6 level in articular tissue; type: in vivo; settings: oral, 18 days after adjuvant injection, non-injected leg
Protocol: Another adjuvant arthritis model animal was prepared apart from the above experiments, and a compound was orally administered to the animal for 18 days after the adjuvant injection. The non-injected leg was then amputated under anesthetization, epidermis of the amputated leg was ablated, the leg was frozen in liquid nitrogen, and the arthrosis part was crushed by a crushing machine. To a measured quantity of the crushed arthrosis, 3 mL of ice-cold PBS was added and homogenized with a homogenizer under ice-cooling. The resultant homogenate was centrifuged at 4° C. for 20 minutes at 3,000 rpm to collect the supernatant, which was then passed through a 0.45 μm filter to prepare a sample. The sample and MH60 BSF2 cells (derived from mouse, require IL-6) were incubated on a 96-well plate under defined conditions, and the absorbance was measured at two wave lengths of 540 nm and 690 nm. The IL-6 level in the sample was calculated based on the standard curve prepared using a recombinant human IL-6.

[5] = test system: serum amyloid protein (SAP); assay: Effect on MRL/l mouse blood acute phase protein SAP; type: in vivo; settings: oral, five times a week, 13 weeks
Protocol: After the last administration of the compound, blood was collected under anesthetization, and the serum was used for SAP measurement. SAP has been used as a marker for rheumatism. A 96-well plate was coated with rabbit anti-mouse SAP serum, and the serum to be tested was then added to the plate and incubated for 2 hours. After addition of sheep anti-mouse SAP serum, a rabbit anti-sheep IgG antibody labeled with alkaline phosphatase and then a substrate were added to the plate, and OD of developed color was measured at 405 nm.

[6] = test system: PGE2 production; assay: Inhibition of PGE2 production due to IL-1β stimulation in mouse myeloblast culture; type: cell-based; settings: 2.5 ng/mL human IL-1β, six days, RIA
Protocol: It has been known that the enhanced formation of osteoclast is induced in the mouse myeloblast culture by addition of IL-1β and such effect is derived from PGE2 production through COX-2 induction. In order to determine inhibitory effect of the compounds against such effect, myeloblasts were collected from a ddY male mice, plated in a 48-well plate at 1×10^6/well and incubated. After culturing for six days in an α-MEM medium containing 10% fetal bovine serum, to which 2.5 ng/mL of human IL-1β and a predetermined concentration of the compounds were added, PGE2 level in the supernatant was measured by RIA kit. On the other hand, cells adhering on the plate were immobilized, and an activity staining of tartaric acid resistant acid phosphatase (TRAP), which is a marker enzyme for osteoclast, was conducted, whereby the number of TRAP positive cells having multinucleate (N>3) per well was counted as osteoclast.

[7] = test system: NO production from activated macrophage; assay: Inhibitory activity against NO production from mouse activated macrophage; type: cell-based; settings: LPS
Protocol: To BALB/c male mice was intraperitoneally administered 2 mL of a thioglycolate solution, and induced activated MΦ were collected after four days and used as NO producing cells. The cells were adjusted to 2×10^6 cells/mL and plated onto a 96-well microtiter plate at 2×10^5 cells/100 μL/well. 10 μL of 1 μg/mL of Compound Ia and LPS (lipopolysaccharide) were added thereto and incubated at 37° C. under 5% CO2 for 24 hours. 75 μL of the supernatant obtained after incubation and 75 μL of Griess reagent were incubated, and […] in the form of sodium nitrite was measured to determine the amount of NO in the supernatant.

[8] = test system: blood NOx level; assay: Suppressive effect on blood NOx level in adjuvant arthritis rat; type: in vivo; settings: oral, 28 days
Protocol: An adjuvant arthritis model was prepared in the same manner as above, and the compounds were orally administered to the animals for 28 days beginning on the day before the adjuvant injection. Blood was then collected under anesthetization and the serum was ultracentrifuged. The supernatant was ultrafiltrated to prepare a sample for NOx (nitrite+nitrate) measurement.

[9] = test system: transcription factor NFκB; assay: Suppressive activity on transcription factor NFκB (HIV-1 LTR luciferase reporter in Jurkat cell); type: cell-based, human; settings: for luciferase activity (%) mean ± standard error: TPA-PHA = 100
Protocol: A recombinant plasmid (pGV-B.HIV-1LTR), in which HIV-1 (AIDS) virus promoter LTR containing two NFκB binding sites is ligated to upstream of firefly luciferase gene, was constructed, and the DNA was purified. This plasmid DNA was introduced by electroporation into a Jurkat cell, a human T cell leukemic cell line, and the cell was cultured for 48 hours. Subsequently, phytohemagglutinin (PHA, 0.5%), phorbol ester (TPA (12-O-tetradecanoylphorbol 13-acetate), 25 ng/mL), and a predetermined concentration of the test compound were added thereto to allow to react for 2 hours, and the cells were harvested, and the luciferase activity in the cellular extract was measured.

Compound: CCN1CC/C(=C\c2cc(C(C)(C)C)c(O)c(C(C)(C)C)c2)S1(=O)=O [Compound Ia, (E)-2-Ethyl-5-(3,5-di-tert-butyl-4-hydroxy)benzylidene-1,2-isothiazolidine-1,1-dioxide]
- IC50 [1]: 10 µM
- dose with dose-dependent and significant inhibitory effect against articular swelling, curative effect ([2]; curative): ≥ 3 mg/kg/day
- dose with dose-dependent and significant inhibitory effect against articular swelling ([2]; prophylactic, adjuvant-injected leg): ≥ 0.3 mg/kg/day
- ED30 (95% confidence limits), prophylactic effect against adjuvant articular swelling ([2]; rat, administered for 22 days after injection of the adjuvant): 0.88 (0.52-1.31) mg/kg/day
- ED30 (95% confidence limits), curative effect against adjuvant articular swelling ([2]; rat, administered from Day 15 to Day 25 after injection of the adjuvant): 2.6 (1.3-6.4) mg/kg/day
- dose with dose-dependent and significant inhibitory effect against the articular destruction ([3]; adjuvant-injected leg): ≥ 3 mg/kg/day
- dose with dose-dependent and significant inhibitory effect against the articular destruction ([3]; non-injected leg): ≥ 1 mg/kg/day
- dose with dose-dependent and significant inhibitory effect against the increase of the IL-6 level in the articular tissue [4]: ≥ 3 mg/kg/day
- effect on blood SAP ([5]; 50 mg/kg/day): significant results
- effect on blood SAP ([5]; 2-50 mg/kg/day): repressive tendency in a dose-dependent manner
- IC50 [6]: 0.00021 µM
- NO^2- Production ([7]; 0.8 μM compound, 24 hours): 27.3 ± 0.94 μM/2 × 10^5 cells
- NO^2- Production ([7]; 3.1 μM compound, 24 hours): 12.3 ± 2.50 μM/2 × 10^5 cells
- NO^2- Production ([7]; 12.5 μM compound, 24 hours): <1.0*** μM/2 × 10^5 cells
- NO^2- Production ([7]; 50 μM compound, 24 hours): <1.0*** μM/2 × 10^5 cells
- NO^2- Production ([7]; 100 μM compound, 24 hours): <1.0*** μM/2 × 10^5 cells
- concentration at which NO production was inhibited in a dose-dependent manner ([7]; mouse activated macrophage): 0.8 to 12.5 µM
- IC50 ([7]; mouse activated macrophage, 24 hours): 3 µM
- dose with dose-dependent and significant inhibitory effect on the increase of blood NOx level [8]: ≥ 3 mg/kg/day
- luciferase activity (%) mean ± standard error ([9]; Experiment-1, 5 μM): 82.2 ± 8.3%
- luciferase activity (%) mean ± standard error ([9]; Experiment-1, 10 μM): 79.6 ± 5.4%
- luciferase activity (%) mean ± standard error ([9]; Experiment-1, 20 μM): 54.6 ± 4.3%
- luciferase activity (%) mean ± standard error ([9]; Experiment-1, 50 μM): 53.5 ± 5.9%
- luciferase activity (%) mean ± standard error ([9]; Experiment-2, 20 μM): 86.4 ± 1.9%
- luciferase activity (%) mean ± standard error ([9]; Experiment-2, 50 μM): 75.1%
- luciferase activity (%) mean ± standard error ([9]; Experiment-2, 100 μM): 61.1 ± 3.9%
- concentration at which luciferase activity was inhibited ([9]; Jurkat cell, TPA-PHA): 5 to 50 µM
